Source: paper PMC6600592, “Design, Synthesis, and Bioactive Screen In Vitro of Cyclohexyl (E)-4-(Hydroxyimino)-4-Phenylbutanoates and Their Ethers for Anti-Hepatitis B Virus Agents” (Molecules, 2019)
Where two headings read alike, the source gives them in different places.

Assays:
[1] = Cytotoxicity in HepG 2.2.15 cells (MTT assay, nine days); format: cell-based, human; settings: human, after nine days, read-out: CC50 (50% cytotoxicity concentration)
Procedure: (§1) These synthesized compounds were evaluated for anti-HBV activity with referring to reported method. The HepG2.2.15 cell, a human hepatoblastoma cell line stably transfected with cloned HBV DNA, was obtained from Chinese Academy of Medical Sciences (Beijing, China), and was cultured in Dulbecco’s Modified Eagle’s Medium (DMEM) supplemented with 10% fetal bovine serum and 1.5 g/L of sodium bicarbonate, 10 mL/L of streptomycin, 10 mL/L of penicillin, and 200 mg/L of G418 at 37 °C in a 5% CO2 atmosphere with 95–98% humidity. Then, HepG2.2.15 cell was plated at a density of 1 × 10^5 cells/mL in 96-well plates and incubated at 37 °C for 24 h and then treated with variant concentration of compounds in […]; every three days, in a nine day period, C (OD) values were recorded at 450 nm. After nine days, the percent of cell death was measured using the method of MTT assay after drug treatment. Cytotoxicity of these compounds was expressed as the concentration of compound required to kill 50% (CC50) of the HepG 2.2.15 cells.

HBeAg = test: cells; settings: for HBeAg SI (selectivity index = CC50/IC50): CC50/IC50 for HBeAg
Procedure: as §1
(§2) Method for the HBsAg and HBeAg Inhibition Assays. The levels of HBV surface antigen (HBsAg) and HBV e antigen (HBeAg) in the supernatant of the HepG2.2.15 cells were determined by the enzyme-linked immunosorbent assay (ELISA) according to the manufacturer’s protocol (Shanghai Kehua Biotech Co., Ltd., Shanghai, China). The synthesized compounds were expressed as the concentration that achieved 50% inhibition (IC50) to the secretion of HBsAg and HBeAg. The selectivity index (SI) was determined as the ratio of CC50 to IC50 which a major pharmaceutical parameter of estimates possible future clinical application.

HBsAg = test: cells; settings: for HBsAg SI (selectivity index = CC50/IC50): CC50/IC50 for HBsAg
Procedure: as §1, §2

HepG 2.2.15 cells = test: Cytotoxicity in HepG 2.2.15 cells (MTT assay, nine days); format: cell-based, human; settings: after nine days, read-out: CC50 (50% cytotoxicity concentration)
Procedure: as §1

[2] = Hepatitis B virus, HepG2.2.15, read-out: HBeAg IC50
[3] = Hepatitis B virus, HepG2.2.15, read-out: HBsAg IC50
[4] = read-out: HBeAg IC50, secretion of HBeAg, HepG 2.2.15 cells, mean ± S.E.M., n = 3
[5] = read-out: HBsAg IC50, secretion of HBsAg, HepG 2.2.15 cells, mean ± S.E.M., n = 3

Molecule	CC50 at 9 days [1] [µM]	HBeAg SI (selectivity index = CC50/IC50) (HBeAg; HepG 2.2.15 cells)	IC50 (HBeAg; [2]) [µM]	HBsAg SI (selectivity index = CC50/IC50) (HBsAg; HepG 2.2.15 cells)	IC50 (HBsAg; [3]) [µM]	CC50 (HepG 2.2.15 cells) [µM]	IC50 (HBeAg; [4]) [µM]	IC50 (HBsAg; [5]) [µM]
CO/N=C(\CCC(=O)OC1CCCCC1)c1ccc(Cl)cc1 [Compound 4D-2, Cyclohexyl (E)-4-methoxyimino-4-(4-chlorophenyl)butanoate]	581	6.83	85.1 ± 11.9	8.59	67.7 ± 8.81	–	–	–
Cc1ccc(/C(CCC(=O)OC2CCCCC2)=N/O)cc1 [Compound 4B-1, Cyclohexyl (E)-4-hydroxyimino-4-(4-methylphenyl)butanoate]	444	1.56	284 ± 26.7	1.72	257 ± 16.5	–	–	–
Cc1ccc(/C(CCC(=O)OC2CCCCC2)=N/OCc2ccccc2)cc1 [Compound 4B-3, Cyclohexyl (E)-4-benzyloxyimino-4-(4-methylphenyl)butanoate]	860	10.16	84.6 ± 6.6	10.95	78.5 ± 9.87	–	–	–
Nc1ccn([C@@H]2CS[C@H](CO)O2)c(=O)n1 [Compound 3TC, Lamivudine, reference compound]	516	–	–	–	–	–	–	–
Cyclohexyl (E)-4-methoxyimino-4-(4-methoxyphenyl)butanoate [Compound 4B-2]	–	–	–	–	–	856	49.4 ± 4.17	63.9 ± 6.26
Cyclohexyl (E)-4-hydroxyimino-4-(4-chlorophenyl)butanimidate [Compound 4D-1]	–	–	–	–	–	396	373 ± 16.9	352 ± 11
COc1ccc(/C(CCC(=O)OC2CCCCC2)=N/OCc2ccccc2)cc1 [Compound 4C-3, Cyclohexyl (E)-4-benzyloxyimino-4-(4-methoxyphenyl)butanoate]	678	5.20	130 ± 21.5	6.08	112 ± 7.25	–	–	–
COc1ccc(/C(CCC(=O)OC2CCCCC2)=N/O)cc1 [Compound 4C-1, Cyclohexyl (E)-4-hydroxyimino-4-(4-methoxyphenyl)butanoate]	481	1.19	405 ± 4.8	0.98	489 ± 11.2	–	–	–
CO/N=C(\CCC(=O)OC1CCCCC1)c1ccc(OC)cc1 [Compound 4C-2, Cyclohexyl (E)-4-methoxyimino-4-(4-methoxyphenyl)butanoate]	630	4.92	128 ± 34.6	5.94	106 ± 8.67	–	–	–
O=C(CC/C(=N\OCc1ccccc1)c1ccccc1)OC1CCCCC1 [Compound 4A-3, Cyclohexyl (E)-4-benzyloxyimino-4-phenylbutanoate]	974	7.53	129 ± 13.6	8.58	114 ± 6.15	–	–	–
O=C(CC/C(=N\OCc1ccccc1)c1ccc(Cl)cc1)OC1CCCCC1 [Compound 4D-3, Cyclohexyl (E)-4-benzyloxyimino-4-(4-chlorophenyl)butanoate]	604	6.25	96.8 ± 5.13	6.53	92.6 ± 4.94	–	–	–
CO/N=C(\CCC(=O)OC1CCCCC1)c1ccccc1 [Compound 4A-2, Cyclohexyl (E)-4-methoxyimino-4-phenylbutanoate]	660	5.55	119 ± 13.2	6.03	109 ± 16.1	–	–	–
O=C(CC/C(=N\O)c1ccccc1)OC1CCCCC1 [Compound 4A-1, Cyclohexyl (E)-4-hydroxyimino-4-phenylbutanoate]	528	1.41	375 ± 36.2	1.04	506 ± 28.6	–	–	–
